Test system: HUVEC/MSC spheroids viability
Test: Human HUVEC/MSC cell line growth inhibition [KRAS2];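 as to viability, T/C: percent of DMSO vehicle control luminescence so 100% = untreated viability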
Conditions: for IC50: curve of first compound; for viability, T/C: stronger effect = lower value
In short: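 HUVEC + hMSC stromal spheroids only, no malignant cells; 37 °C, 5% CO2. Drugs singly and in pairs, half-log series down from clinical Cmax (max 10 microM if Cmax undetermined).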

[1] = second compound 0.0316 µM, first compound 0.0316 µM
[2] = second compound 0.0316 µM, first compound 0.1 µM
[3] = second compound 0.0316 µM, first compound 0.316 µM
[4] = second compound 0.0316 µM, first compound 1 µM
[5] = second compound 0.0316 µM, first compound 3.16 µM
[6] = second compound 0.0316 µM, first compound 10 µM
[7] = second compound 0.1 µM, first compound 0.0316 µM
[8] = second compound 0.1 µM, first compound 0.1 µM
[9] = second compound 0.1 µM, first compound 0.316 µM
[10] = second compound 0.1 µM, first compound 1 µM
[11] = second compound 0.1 µM, first compound 3.16 µM
[12] = second compound 0.1 µM, first compound 10 µM
[13] = second compound 0.316 µM, first compound 0.0316 µM
[14] = second compound 0.316 µM, first compound 0.1 µM
[15] = second compound 0.316 µM, first compound 0.316 µM
[16] = second compound 0.316 µM, first compound 1 µM
[17] = second compound 0.316 µM, first compound 3.16 µM
[18] = second compound 0.316 µM, first compound 10 µM
[19] = second compound 1 µM, first compound 0.0316 µM
[20] = second compound 1 µM, first compound 0.1 µM
[21] = second compound 1 µM, first compound 0.316 µM
[22] = second compound 1 µM, first compound 1 µM
[23] = second compound 1 µM, first compound 3.16 µM
[24] = second compound 1 µM, first compound 10 µM
[25] = second compound 3.16 µM, first compound 0.0316 µM
[26] = second compound 3.16 µM, first compound 0.1 µM
[27] = second compound 3.16 µM, first compound 0.316 µM
[28] = second compound 3.16 µM, first compound 1 µM
[29] = second compound 3.16 µM, first compound 3.16 µM
[30] = second compound 3.16 µM, first compound 10 µM
[31] = second compound 10 µM, first compound 0.0316 µM
[32] = second compound 10 µM, first compound 0.1 µM
[33] = second compound 10 µM, first compound 0.316 µM
[34] = second compound 10 µM, first compound 1 µM
[35] = second compound 10 µM, first compound 3.16 µM
[36] = second compound 10 µM, first compound 10 µM

With `CC1(C)CCC(CN2CCN(c3ccc(C(=O)NS(=O)(=O)c4ccc(NCC5CCOCC5)c([N+](=O)[O-])c4)c(Oc4cnc5[nH]ccc5c4)c3)CC2)=C(c2ccc(Cl)cc2)C1` + CNCc1ccccc1-c1csc(C(C)Nc2nc(C)nc3cc(OC)c(OC)cc23)c1 the IC50 (second compound 0.0316 µM) was 4.27 µM, the IC50 (second compound 0.1 µM) was 4.11 µM and the IC50 (second compound 0.316 µM) was 4.04 µM. For the same molecule, the IC50 (second compound 1 µM) was 4.92 µM, the IC50 (second compound 3.16 µM) was 5.27 µM and the IC50 (second compound 10 µM) was < 0.0316 µM. The viability, T/C [1] was 101%, the viability, T/C [2] was 111% and the viability, T/C [3] was 101%. For the same molecule, the viability, T/C [4] was 94.2%, the viability, T/C [5] was 67.1% and the viability, T/C [6] was 1.69%. It also gave a viability, T/C [7] of 87.2%, a viability, T/C [8] of 106% and a viability, T/C [9] of 93.7%. For the same molecule, the viability, T/C [10] was 87%, the viability, T/C [11] was 63.2% and the viability, T/C [12] was 5.65%. It also gave a viability, T/C [13] of 79.8%, a viability, T/C [14] of 76.3% and a viability, T/C [15] of 97.8%. For the same molecule, the viability, T/C [16] was 104%, the viability, T/C [17] was 62.8% and the viability, T/C [18] was 2.84%. The viability, T/C [19] was 75.4%, the viability, T/C [20] was 73.7% and the viability, T/C [21] was 90.9%. For the same molecule, the viability, T/C [22] was 76.6%, the viability, T/C [23] was 80.2% and the viability, T/C [24] was 2.99%. It also gave a viability, T/C [25] of 78.3%, a viability, T/C [26] of 99.6% and a viability, T/C [27] of 82%. It also gave a viability, T/C [28] of 92.2%, a viability, T/C [29] of 95.9% and a viability, T/C [30] of 0.31%. It also gave a viability, T/C [31] of 0.33%, a viability, T/C [32] of 0.35% and a viability, T/C [33] of 0.51%. For the same molecule, the viability, T/C [34] was 0.51%, the viability, T/C [35] was 0.36% and the viability, T/C [36] was 0.57%.
With `CC(=O)OC12COC1CC(O)C1(C)C(=O)C(O)C3=C(C)C(OC(=O)C(O)C(NC(=O)OC(C)(C)C)c4ccccc4)CC(O)(C(OC(=O)c4ccccc4)C21)C3(C)C` (stereo unspecified) + CNCc1ccccc1-c1csc(C(C)Nc2nc(C)nc3cc(OC)c(OC)cc23)c1 the IC50 (second compound 0.0316 µM) was < 0.00949 µM, the IC50 (second compound 0.1 µM) was < 0.00949 µM and the IC50 (second compound 0.316 µM) was 0.0396 µM. The IC50 (second compound 1 µM) was > 3 µM, the IC50 (second compound 3.16 µM) was > 3 µM and the IC50 (second compound 10 µM) was < 0.00949 µM. It also gave a viability, T/C (second compound 0.0316 µM, first compound 0.00949 µM) of 40.6%, a viability, T/C (second compound 0.0316 µM, first compound 0.03 µM) of 40.6% and a viability, T/C (second compound 0.0316 µM, first compound 0.0949 µM) of 49.7%. For the same molecule, the viability, T/C (second compound 0.0316 µM, first compound 0.3 µM) was 53%, the viability, T/C (second compound 0.0316 µM, first compound 0.949 µM) was 49.1% and the viability, T/C (second compound 0.0316 µM, first compound 3 µM) was 54.2%. The viability, T/C (second compound 0.1 µM, first compound 0.00949 µM) was 44.2%, the viability, T/C (second compound 0.1 µM, first compound 0.03 µM) was 43.3% and the viability, T/C (second compound 0.1 µM, first compound 0.0949 µM) was 51.8%. For the same molecule, the viability, T/C (second compound 0.1 µM, first compound 0.3 µM) was 45.1%, the viability, T/C (second compound 0.1 µM, first compound 0.949 µM) was 42.9% and the viability, T/C (second compound 0.1 µM, first compound 3 µM) was 50%. The viability, T/C (second compound 0.316 µM, first compound 0.00949 µM) was 44.8%, the viability, T/C (second compound 0.316 µM, first compound 0.03 µM) was 56.5% and the viability, T/C (second compound 0.316 µM, first compound 0.0949 µM) was 54.6%. For the same molecule, the viability, T/C (second compound 0.316 µM, first compound 0.3 µM) was 43.3%, the viability, T/C (second compound 0.316 µM, first compound 0.949 µM) was 48.8% and the viability, T/C (second compound 0.316 µM, first compound 3 µM) was 49%. It also gave a viability, T/C (second compound 1 µM, first compound 0.00949 µM) of 47.3%, a viability, T/C (second compound 1 µM, first compound 0.03 µM) of 62.2% and a viability, T/C (second compound 1 µM, first compound 0.0949 µM) of 68.9%. The viability, T/C (second compound 1 µM, first compound 0.3 µM) was 54.3%, the viability, T/C (second compound 1 µM, first compound 0.949 µM) was 55.4% and the viability, T/C (second compound 1 µM, first compound 3 µM) was 61.9%. The viability, T/C (second compound 3.16 µM, first compound 0.00949 µM) was 78.1%, the viability, T/C (second compound 3.16 µM, first compound 0.03 µM) was 73.5% and the viability, T/C (second compound 3.16 µM, first compound 0.0949 µM) was 73.8%. The viability, T/C (second compound 3.16 µM, first compound 0.3 µM) was 77.6%, the viability, T/C (second compound 3.16 µM, first compound 0.949 µM) was 76.8% and the viability, T/C (second compound 3.16 µM, first compound 3 µM) was 56.7%. For the same molecule, the viability, T/C (second compound 10 µM, first compound 0.00949 µM) was 0.32%, the viability, T/C (second compound 10 µM, first compound 0.03 µM) was 0.36% and the viability, T/C (second compound 10 µM, first compound 0.0949 µM) was 0.39%. It also gave a viability, T/C (second compound 10 µM, first compound 0.3 µM) of 0.34%, a viability, T/C (second compound 10 µM, first compound 0.949 µM) of 0.34% and a viability, T/C (second compound 10 µM, first compound 3 µM) of 1.75%.
`COc1cc(Nc2ncc3c(n2)-c2ccc(Cl)cc2C(c2c(F)cccc2OC)=NC3)ccc1C(=O)O` + COc1cc2nc(C)nc(NC(C)c3cc(N)cc(C(F)(F)F)c3)c2cc1OC1CCOC1 was tested, and the IC50 (second compound 0.0316 µM) was > 10 µM, the IC50 (second compound 0.1 µM) was > 10 µM and the IC50 (second compound 0.316 µM) was 9.25 µM. The IC50 (second compound 1 µM) was > 10 µM, the IC50 (second compound 3.16 µM) was 9.65 µM and the IC50 (second compound 10 µM) was 8.57 µM. It also gave a viability, T/C [1] of 79.5%, a viability, T/C [2] of 94.3% and a viability, T/C [3] of 109%. The viability, T/C [4] was 82.5%, the viability, T/C [5] was 111% and the viability, T/C [6] was 61.6%. The viability, T/C [7] was 95.5%, the viability, T/C [8] was 89.7% and the viability, T/C [9] was 105%. For the same molecule, the viability, T/C [10] was 85.8%, the viability, T/C [11] was 97% and the viability, T/C [12] was 58.8%. For the same molecule, the viability, T/C [13] was 87.8%, the viability, T/C [14] was 97.1% and the viability, T/C [15] was 92.5%. For the same molecule, the viability, T/C [16] was 105%, the viability, T/C [17] was 104% and the viability, T/C [18] was 46.5%. It also gave a viability, T/C [19] of 86.9%, a viability, T/C [20] of 89.5% and a viability, T/C [21] of 96.8%. For the same molecule, the viability, T/C [22] was 106%, the viability, T/C [23] was 107% and the viability, T/C [24] was 52.7%. For the same molecule, the viability, T/C [25] was 77.4%, the viability, T/C [26] was 94.8% and the viability, T/C [27] was 102%. The viability, T/C [28] was 77%, the viability, T/C [29] was 102% and the viability, T/C [30] was 48.7%. For the same molecule, the viability, T/C [31] was 62.5%, the viability, T/C [32] was 85.8% and the viability, T/C [33] was 72.5%. The viability, T/C [34] was 84.9%, the viability, T/C [35] was 74.9% and the viability, T/C [36] was 46.1%.

From PubChem BioAssay AID2060912 (Molecular Pharmacology Branch, DTP, NCI, 2025)
